According to patent US20210198204A1, “PRODRUGS OF KALLIKREIN INHIBITORS” (BioCryst Pharmaceuticals, Inc., priority 2016, published 2021):

Assay: Plasma pharmacokinetics of the parent compound after a single oral dose of prodrug
Type: in vivo
Conditions: single oral dose 10 mg/kg, fasted male Sprague Dawley rats; plasma analyzed for the parent compound; study duration 8 h
Summary of the method: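 Three male Sprague Dawley rats, housed in metabolic cages and fasted about 15 hours, were weighed and received one oral gavage dose of 10 mg/kg as a solution in water or water/propylene glycol. Blood (approximately 500 μL) went into heparin tubes at set timepoints up to the study duration. Plasma was separated by centrifugation at 14,000 rpm for 3 min at 4° C, stored below −70° C, and assayed for the parent compound.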

| Compound | AUC0-last hour (area under the curve) |
| --- | --- |
| C=Cc1cc(C(=O)Nc2ccc(C(=N)NC(=O)OCCN3CCOCC3)cc2)c(-c2ccc(C(=O)NCC3CC3)nc2C(=O)OC(C)OC(=O)[C@@H](N)C(C)C)cc1OC (stereo partly drawn) [Compound 96d, 1-(((S)-2-amino-3-methylbutanoyl)oxy)ethyl 6-((cyclopropylmethyl)carbamoyl)-3-(5-methoxy-2-((4-(N-((2-morpholinoethoxy)carbonyl)carbamimidoyl)phenyl)carbamoyl)-4-vinylphenyl)picolinate] | A (A = 0-1,000 ng/mL) |
| C=Cc1cc(C(=O)Nc2ccc(C(=N)NC(=O)OC[C@H]3OC[C@H](O)[C@@H]3O)cc2)c(-c2ccc(C(=O)NCC3CC3)nc2C(=O)OC(C)OC(=O)C(C)C)cc1OC (stereo partly drawn) [Compound 98e, 1-(isobutyryloxy)ethyl 6-((cyclopropylmethyl)carbamoyl)-3-(2-((4-(N-((((2R,3S,4S)-3,4-dihydroxytetrahydrofuran-2-yl)methoxy)carbonyl)carbamimidoyl)phenyl)carbamoyl)-5-methoxy-4-vinylphenyl)picolinate] | A (A = 0-1,000 ng/mL) |
| C=Cc1cc(C(=O)Nc2ccc(C(=N)NC(=O)OCCOC(=O)[C@@H](N)C(C)C)cc2)c(-c2ccc(C(=O)NCC3CC3)nc2C(=O)OC(C)OC(=O)C(C)C)cc1OC (stereo partly drawn) [Compound 101e, 1-(isobutyryloxy)ethyl 3-(2-((4-(N-((2-(((S)-2-amino-3-methylbutanoyl)oxy)ethoxy)carbonyl)carbamimidoyl)phenyl)carbamoyl)-5-methoxy-4-vinylphenyl)-6-((cyclopropylmethyl)carbamoyl)picolinate] | A (A = 0-1,000 ng/mL) |
| C=Cc1cc(C(=O)Nc2ccc(C(=N)NC(=O)OC[C@@H]3CCC(=O)N3)cc2)c(-c2ccc(C(=O)NCC3CC3)nc2C(=O)OC(C)OC(=O)C(C)C)cc1OC (stereo partly drawn) [Compound 103c, 1-(isobutyryloxy)ethyl 6-((cyclopropylmethyl)carbamoyl)-3-(5-methoxy-2-((4-(N—((((S)-5-oxopyrrolidin-2-yl)methoxy)carbonyl)carbamimidoyl)phenyl)carbamoyl)-4-vinylphenyl)picolinate] | A (A = 0-1,000 ng/mL) |
| C=Cc1cc(C(=O)Nc2ccc(C(=N)NC(=O)OC(C)COC(=O)CCCC[C@H]3SCC4NC(=O)NC43)cc2)c(-c2ccc(C(=O)NCC3CC3)nc2C(=O)OC(C)OC(=O)OC(C)C)cc1OC (stereo partly drawn) [Compound 104b, 1-((isopropoxycarbonyl)oxy)ethyl 6-((cyclopropylmethyl)carbamoyl)-3-(5-methoxy-2-((4-(N-(((1-((5-((4R)-2-oxohexahydro-1H-thieno[3,4-d]imidazol-4-yl)pentanoyl)oxy)propan-2-yl)oxy)carbonyl)carbamimidoyl)phenyl)carbamoyl)-4-vinylphenyl)picolinate] | A (A = 0-1,000 ng/mL) |
| C=Cc1cc(C(=O)Nc2ccc(C(=N)NC(=O)OCc3oc(=O)oc3C)cc2)c(-c2ccc(C(=O)NCC3CC3)nc2C(=O)OC(C)OC(=O)C(C)C)cc1OC (centres unmarked) [Compound 117b, 1-(isobutyryloxy)ethyl 6-((cyclopropylmethyl)carbamoyl)-3-(5-methoxy-2-((4-(N-(((5-methyl-2-oxo-1,3-dioxol-4-yl)methoxy)carbonyl)carbamimidoyl)phenyl)carbamoyl)-4-vinylphenyl)picolinate] | B (B = 1,001-10,000 ng/mL) |
| C=Cc1cc(C(=O)Nc2ccc(C(=N)NC(=O)OCc3oc(=O)oc3C)cc2)c(-c2ccc(C(=O)NCC3CC3)nc2C(=O)OCOC(=O)[C@@H](N)C(C)C)cc1OC [Compound 118c, (S)-((2-amino-3-methylbutanoyl)oxy)methyl 6-((cyclopropylmethyl)carbamoyl)-3-(5-methoxy-2-((4-(N-(((5-methyl-2-oxo-1,3-dioxol-4-yl)methoxy)carbonyl)carbamimidoyl)phenyl)carbamoyl)-4-vinylphenyl)picolinate] | A (A = 0-1,000 ng/mL) |

Second part, the molecule after the results:

| AUC0-last hour (area under the curve) | Compound |
| --- | --- |
| A (A = 0-1,000 ng/mL) | C=Cc1cc(C(=O)Nc2ccc(C(=N)NC(=O)OC(C)CN)cc2)c(-c2ccc(C(=O)NCC3CC3)nc2C(=O)OC(C)OC(=O)OC(C)C)cc1OC (centres unmarked) [Compound 97e, 1-((isopropoxycarbonyl)oxy)ethyl 3-(2-((4-(N-(((1-aminopropan-2-yl)oxy)carbonyl)carbamimidoyl)phenyl)carbamoyl)-5-methoxy-4-vinylphenyl)-6-((cyclopropylmethyl)carbamoyl)picolinate] |
| A (A = 0-1,000 ng/mL) | C=Cc1cc(C(=O)Nc2ccc(C(=N)NC(=O)OC[C@H]3NC[C@H](O)[C@@H]3O)cc2)c(-c2ccc(C(=O)NCC3CC3)nc2C(=O)OC(C)OC(=O)OC(C)C)cc1OC (stereo partly drawn) [Compound 99e, 1-((isopropoxycarbonyl)oxy)ethyl 6-((cyclopropylmethyl)carbamoyl)-3-(2-((4-(N-((((2R,3R,4S)-3,4-dihydroxypyrrolidin-2-yl)methoxy)carbonyl)carbamimidoyl)phenyl)carbamoyl)-5-methoxy-4-vinylphenyl)picolinate] |
| B (B = 1,001-10,000 ng/mL) | C=Cc1cc(C(=O)Nc2ccc(C(=N)NC(=O)OCCCCCC)cc2)c(-c2ccc(C(=O)NCC3CC3)nc2C(=O)OC(C)OC(=O)OC(C)CO)cc1OC (centres unmarked) [Compound 100e, 1-((((1-hydroxypropan-2-yl)oxy)carbonyl)oxy)ethyl 6-((cyclopropylmethyl)carbamoyl)-3-(2-((4-(N-((hexyloxy)carbonyl)carbamimidoyl)phenyl)carbamoyl)-5-methoxy-4-vinylphenyl)picolinate] |
| A (A = 0-1,000 ng/mL) | C=Cc1cc(C(=O)Nc2ccc(C(=N)NC(=O)OCCCCCN)cc2)c(-c2ccc(C(=O)NCC3CC3)nc2C(=O)OC(C)OC(=O)C(C)C)cc1OC (centres unmarked) [Compound 102d, 1-(isobutyryloxy)ethyl 3-(2-((4-(N-(((5-aminopentyl)oxy)carbonyl)carbamimidoyl)phenyl)carbamoyl)-5-methoxy-4-vinylphenyl)-6-((cyclopropylmethyl)carbamoyl)picolinate] |
